Test results taken from patent publication US6013651A, “Meta-azacyclic amino benzoic acid compounds and derivatives thereof” (G. D. Searle & Co., priority 1998, dated 2000).
pIC50: −log10 of the molar value. Where a name gives a salt, the structure may show the parent alone. Read-outs that look alike come from different tables or passages of the source.

How the values were obtained:
[1] = molecular target: T1, human vitronectin receptor (αv β3) (Homo sapiens, UniProt P05106+P06756); test: Vitronectin adhesion assay, solid phase receptor assay (inhibition of biotinylated vitronectin binding to purified αvβ3)
T1 construct: purified from human placenta; from tissue; host or cells: human placenta
Method: Human vitronectin receptor (αv β3) was purified from human placenta as previously described [Pytela et al., Methods in Enzymology, 144:475-489 (1987)]. Human vitronectin was purified from fresh frozen plasma as previously described [Yatohgo et al., Cell Structure and Function, 13:281-292 (1988)]. Biotinylated human vitronectin was prepared by coupling NHS-biotin from Pierce Chemical Company (Rockford, Ill.) to purified vitronectin as previously described [Charo et al., J. Biol. Chem., 266(3):1415-1421 (1991)]. Assay buffer, OPD substrate tablets, and RIA grade BSA were obtained from Sigma (St. Louis, Mo.). Anti-biotin antibody was obtained from Calbiochem (La Jolla, Calif.). Linbro microtiter plates were obtained from Flow Labs (McLean, Va.). ADP reagent was obtained from Sigma (St. Louis, Mo.).
This assay was essentially the same as previously reported [Niiya et al., Blood, 70:475-483 (1987)]. The purified human vitronectin receptor (αv β3) was diluted from stock solutions to […] in tris-buffered saline containing 1.0 mM Ca^++, Mg^++, and Mn^++, pH 7.4 (TBS^+++). The diluted receptor was immediately transferred to Linbro microtiter plates at 100 µL/well (100 ng receptor/well). The plates were sealed and incubated overnight at 4° C. to allow the receptor to bind to the wells. All remaining steps were at room temperature. The assay plates were emptied and 200 µL of 1% RIA grade BSA in TBS^+++ (TBS^+++ /BSA) were added to block exposed plastic surfaces. Following a 2 hour incubation, the assay plates were washed with TBS^+++ using a 96 well plate washer. Logarithmic serial dilution of the test compound and controls were made starting at a stock concentration of 2 mM and using 2 nM biotinylated vitronectin in TBS^+++ /BSA as the diluent. This premixing of labeled ligand with test (or control) ligand, and subsequent transfer of 50 µL aliquots to the assay plate was carried out with a CETUS Propette robot; the final concentration of the labeled ligand was 1 nM and the highest concentration of test compound was 1.0×10^-4 M. The competition occurred for two hours after which all wells were washed with a plate washer as before. Affinity purified horseradish peroxidase labeled goat anti-biotin antibody was diluted 1:3000 in TBS^+++ /BSA and 125 µL were added to each well. After 30 minutes, the plates were washed and incubated with OPD/H2 O substrate in 100 mM/L Citrate buffer, pH 5.0. The plate was read with a microtiter plate reader at a wavelength of 450 nm and when the maximum-binding control wells reached an absoround bottomance of about 1.0, the final A450 were recorded for analysis. The data were analyzed using a macro written for use with the EXCEL spreadsheet program. The mean, standard deviation, and % CV were determined for duplicate concentrations. The mean A450 values were normalized to the mean of four maximum-binding controls (no competitor added)(B-MAX). The normalized values were subjected to a four parameter curve fit algorithm [Rodbard et al., Int.

[2] = molecular target: T2, human fibrinogen receptor (αIIb β3) (Homo sapiens, UniProt P05106+P08514); test: Purified IIb/IIIa receptor assay, solid phase receptor assay (inhibition of biotinylated vitronectin binding); conditions: 1 nM biotinylated human vitronectin, pH 7.4, 2 h competition
T2 construct: purified from outdated platelets; from tissue; host or cells: outdated human platelets
Excerpt: Human fibrinogen receptor (αIIb β3) was purified from outdated platelets. (Pytela, R., Pierschbacher, M. D., Argraves, S., Suzuki, S., and Rouslahti, E. "Arginine-Glycine-Aspartic acid adhesion receptors", Methods in Enzymology 144(1987):475-489.) Human vitronectin was purified from fresh frozen plasma as described in Yatohgo, T., Izumi, M., Kashiwagi, H., and Hayashi, M., "Novel purification of vitronectin from human plasma by heparin affinity chromatography," Cell Structure and Function 13(1988):281-292. Biotinylated human vitronectin was prepared by coupling NHS-biotin from Pierce Chemical Company (Rockford, Il.) to purified vitronectin as previously described. (Charo, I. F., Nannizzi, L., Phillips, D. R., Hsu, M. A., Scaround bottomorough, R. M., "Inhibition of fibrinogen binding to GP IIIb/IIIa by a GP IIIa peptide", J. Biol. Chem. 266(3)(1991): 1415-1421.) Assay buffer, OPD substrate tablets, and RIA grade BSA were obtained from Sigma (St. Louis, Mo.). Anti-biotin antibody was obtained from Calbiochem (La Jolla, Calif.). Linbro microtiter plates were obtained from Flow Labs (McLean, Va.). ADP reagent was obtained from Sigma (St. Louis, Mo.).
This assay is essentially the same reported in Niiya, K., Hodson, E., Bader, R., Byers-Ward, V. Koziol, J. A., Plow, E. F. and Ruggeri, Z. M., "Increased surface expression of the membrane glycoprotein IIb/IIIa complex induced by platelet activation: Relationships to the binding of fibrinogen and platelet aggregation", Blood 70(1987):475-483. The purified human fibrinogen receptor (αIIb β3) was diluted from stock solutions to 1.0 μg/mL in Tris-buffered saline containing 1.0 mM Ca^++, Mg^++, and Mn^++, pH 7.4 (TBS^+++). The diluted receptor was immediately transferred to Linbro microtiter plates at 100 μL/well (100 ng receptor/well). The plates were sealed and incubated overnight at 4° C. to allow the receptor to bind to the wells. All remaining steps were at room temperature. The assay plates were emptied and 200 μL of 1% RIA grade BSA in TBS^+++ (TBS^+++ /BSA) were added to block exposed plastic surfaces. Following a 2 hour incubation, the assay plates were washed with TBS^+++ using a 96 well plate washer. Logarithmic serial dilution of the test compound and controls were made starting at a stock concentration of 2 mM and using 2 nM biotinylated vitronectin in TBS^+++ /BSA as the diluent. This premixing of labeled ligand with test (or control) ligand, and subsequent transfer of 50 μL aliquots to the assay plate was carried out with a CETUS Propette robot; the final concentration of the labeled ligand was 1 nM and the highest concentration of test compound was 1.0×10^-4 M. The competition occurred for two hours after which all wells were washed with a plate washer as before. Affinity purified horseradish peroxidase labeled goat anti-biotin antibody was diluted 1:3000 in TBS^+++ /BSA and 125 μL were added to each well. After 30 minutes, the plates were washed and incubated with […]/H2 O2 substrate in 100 mM/L citrate buffer, pH 5.0. The plate was read with a microtiter plate reader at a wavelength of 450 nm and when the maximum-binding control wells reached an absoround bottomance of about 1.0, the final A450 were recorded for analysis. The data were analyzed using a macro written for use with the EXCEL™ spreadsheet program. The mean, standard deviation, and % CV were determined for duplicate concentrations. The mean A450 values were normalized to the mean of four maximum-binding controls (no competitor added)(B-MAX). The normalized values were subjected to a four parameter curve fit algorithm, [Robard et al., Int.

[3] = 1 nM biotinylated human vitronectin, purified receptor, pH 7.4, 2 h competition, read-out: αv β3 IC50

T1 sequence (P06756 31-889 limits assumed): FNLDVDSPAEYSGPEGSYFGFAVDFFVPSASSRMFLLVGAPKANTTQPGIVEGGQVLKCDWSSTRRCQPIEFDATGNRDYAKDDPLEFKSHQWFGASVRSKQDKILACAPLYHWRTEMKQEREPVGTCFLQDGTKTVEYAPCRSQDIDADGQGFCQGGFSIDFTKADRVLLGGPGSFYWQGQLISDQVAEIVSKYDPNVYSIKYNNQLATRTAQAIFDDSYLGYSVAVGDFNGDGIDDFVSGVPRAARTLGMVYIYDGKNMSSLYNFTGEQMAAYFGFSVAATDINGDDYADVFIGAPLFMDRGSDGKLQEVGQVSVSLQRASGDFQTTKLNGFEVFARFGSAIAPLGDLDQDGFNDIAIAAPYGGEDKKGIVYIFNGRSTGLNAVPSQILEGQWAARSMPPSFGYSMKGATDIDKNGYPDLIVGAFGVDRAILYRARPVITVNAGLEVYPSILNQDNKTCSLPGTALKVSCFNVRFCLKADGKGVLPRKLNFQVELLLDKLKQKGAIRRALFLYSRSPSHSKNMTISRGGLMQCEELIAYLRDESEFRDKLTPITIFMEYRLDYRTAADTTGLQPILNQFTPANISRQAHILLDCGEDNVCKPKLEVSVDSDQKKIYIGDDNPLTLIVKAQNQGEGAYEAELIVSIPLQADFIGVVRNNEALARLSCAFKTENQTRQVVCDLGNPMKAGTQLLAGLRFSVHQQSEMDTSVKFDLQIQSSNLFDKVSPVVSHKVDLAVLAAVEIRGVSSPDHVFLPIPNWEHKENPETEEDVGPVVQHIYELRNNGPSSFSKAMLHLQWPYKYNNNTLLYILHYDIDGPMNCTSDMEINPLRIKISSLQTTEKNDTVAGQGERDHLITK
T1 sequence (P06756 891-1048 limits assumed): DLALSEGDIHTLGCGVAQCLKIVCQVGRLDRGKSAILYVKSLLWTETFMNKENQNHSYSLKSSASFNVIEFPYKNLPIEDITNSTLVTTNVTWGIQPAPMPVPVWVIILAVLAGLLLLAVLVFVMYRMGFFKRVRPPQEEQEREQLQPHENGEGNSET
T1 sequence (P05106 27-788): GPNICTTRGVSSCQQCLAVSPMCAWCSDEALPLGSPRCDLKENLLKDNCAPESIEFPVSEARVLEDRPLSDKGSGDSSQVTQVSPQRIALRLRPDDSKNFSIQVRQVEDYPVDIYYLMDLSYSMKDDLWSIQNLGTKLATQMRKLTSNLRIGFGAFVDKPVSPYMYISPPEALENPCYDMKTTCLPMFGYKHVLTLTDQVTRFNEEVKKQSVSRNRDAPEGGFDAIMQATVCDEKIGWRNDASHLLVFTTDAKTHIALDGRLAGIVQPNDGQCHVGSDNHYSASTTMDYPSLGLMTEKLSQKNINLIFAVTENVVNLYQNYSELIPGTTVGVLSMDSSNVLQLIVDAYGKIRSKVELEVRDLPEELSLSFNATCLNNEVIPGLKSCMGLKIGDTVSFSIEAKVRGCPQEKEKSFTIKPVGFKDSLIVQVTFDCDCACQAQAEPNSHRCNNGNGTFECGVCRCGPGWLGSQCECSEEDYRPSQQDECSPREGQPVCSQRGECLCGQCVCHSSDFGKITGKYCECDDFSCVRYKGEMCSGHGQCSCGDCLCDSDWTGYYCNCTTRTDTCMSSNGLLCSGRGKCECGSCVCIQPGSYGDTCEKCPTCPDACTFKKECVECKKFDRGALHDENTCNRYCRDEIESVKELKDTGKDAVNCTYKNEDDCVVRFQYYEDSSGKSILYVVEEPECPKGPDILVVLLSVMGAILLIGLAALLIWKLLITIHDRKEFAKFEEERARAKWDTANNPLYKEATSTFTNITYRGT
T2 sequence (P08514 32-887 limits assumed): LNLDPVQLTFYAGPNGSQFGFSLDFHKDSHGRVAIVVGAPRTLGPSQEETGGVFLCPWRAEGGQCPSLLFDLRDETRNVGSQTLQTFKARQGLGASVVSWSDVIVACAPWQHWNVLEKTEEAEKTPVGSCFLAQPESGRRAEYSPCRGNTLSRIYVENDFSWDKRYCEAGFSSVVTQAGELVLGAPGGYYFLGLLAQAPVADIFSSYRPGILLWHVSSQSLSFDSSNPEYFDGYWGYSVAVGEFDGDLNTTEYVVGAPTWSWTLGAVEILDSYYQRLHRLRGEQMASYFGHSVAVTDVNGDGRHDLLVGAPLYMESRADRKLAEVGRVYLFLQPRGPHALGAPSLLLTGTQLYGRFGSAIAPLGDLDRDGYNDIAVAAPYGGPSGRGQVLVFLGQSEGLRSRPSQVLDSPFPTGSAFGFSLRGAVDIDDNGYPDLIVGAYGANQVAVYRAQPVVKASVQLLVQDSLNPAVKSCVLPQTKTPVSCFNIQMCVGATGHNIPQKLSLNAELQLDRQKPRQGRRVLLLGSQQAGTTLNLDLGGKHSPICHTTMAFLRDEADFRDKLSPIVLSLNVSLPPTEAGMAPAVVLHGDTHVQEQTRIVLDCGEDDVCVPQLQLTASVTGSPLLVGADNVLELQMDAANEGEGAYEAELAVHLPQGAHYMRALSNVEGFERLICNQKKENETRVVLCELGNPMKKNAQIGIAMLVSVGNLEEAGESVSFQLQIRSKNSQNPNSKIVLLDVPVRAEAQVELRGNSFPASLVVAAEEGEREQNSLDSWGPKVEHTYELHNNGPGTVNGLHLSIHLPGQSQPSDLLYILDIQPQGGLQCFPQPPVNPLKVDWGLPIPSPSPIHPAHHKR
T2 sequence (P08514 891-1039 limits assumed): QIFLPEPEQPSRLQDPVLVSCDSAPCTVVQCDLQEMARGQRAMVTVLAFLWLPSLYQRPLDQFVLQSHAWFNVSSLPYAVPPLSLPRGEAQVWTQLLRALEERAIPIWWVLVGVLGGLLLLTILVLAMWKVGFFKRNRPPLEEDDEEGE
T2 sequence (P05106 27-788): as the sequence (P05106 27-788) above

| pIC50 [1, 3] | pIC50 [2] | pIC50 ([1]; positive control included on each plate, read-out: αv β3 antagonist IC50 of positive control) | SMILES |
| --- | --- | --- | --- |
| 8.98 | 6.37 |  | O=C(O)CC(NC(=O)CNC(=O)c1cc(O)cc(NC2=NCC(O)CN2)c1)c1cc(Cl)cc(Cl)c1O (stereo not shown) [Example 2] |
|  |  | 8.00 to 8.52 | N=C(N)NCCCCC(=O)NCC(=O)NC(CC(=O)O)c1cccnc1 (stereo not drawn) [β-[[2-[[5-[(aminoiminomethyl)-amino]-1-oxopentyl]amino]-1-oxoethyl]amino]-3-pyridinepropanoic acid, reference compound] |
| 9.09 | 6.65 |  | O=C(O)C[C@H](NC(=O)CNC(=O)c1cc(O)cc(NC2=NCC(O)CN2)c1)c1cc(Cl)cc(Br)c1O (stereo partly shown) [9 · HCl] |
| 9.40 | 6.88 |  | O=C(O)C[C@H](NC(=O)CNC(=O)c1cc(O)cc(N=C2NCC(O)CN2)c1)c1cc(Cl)cc(Cl)c1O (stereo partly drawn) [Example 8, (S) 3,5-dichloro-2-hydroxy-β-[[2-[[[3-hydroxy-5-[(1,4,5,6-tetrahydro-5-hydroxypyrimidin-2-yl)amino]phenyl]carbonyl]amino]acetyl]amino]-benzenepropanoic acid, monohydrochloride monohydrate] |
| 8.67 | 6.13 |  | O=C(O)CC(NC(=O)CNC(=O)c1cc(O)cc(NC2=NCC(O)CN2)c1)c1cc(Cl)cc(I)c1O (stereo not shown) [Example 5] |
| 9.06 | 6.51 |  | O=C(O)CC(NC(=O)CNC(=O)c1cc(O)cc(NC2=NCC(O)CN2)c1)c1cc(Cl)cc(Br)c1O (racemic) [Example 1, (±) 3-bromo-5-chloro-2-hydroxy-β-[[2-[[[3-hydroxy-5-[(1,4,5,6-tetrahydro-5-hydroxypyrimidin-2-yl)amino]phenyl]carbonyl]amino]acetyl]amino]benzenepropanoic acid, trifluroacetate salt] |
| 8.65 | 6.19 |  | O=C(O)C[C@H](NC(=O)CNC(=O)c1cc(O)cc(NC2=NCC(O)CN2)c1)c1cc(Br)cc(Br)c1O (stereo partly shown) [Example 10] |
| 8.69 | 6.24 |  | O=C(O)CC(NC(=O)CNC(=O)c1cc(O)cc(NC2=NCC(O)CN2)c1)c1cc(Br)cc(Cl)c1O (stereo not shown) [Example 4] |
| 8.19 | 6.04 |  | O=C(O)CC(NC(=O)CNC(=O)c1cc(O)cc(NC2=NCC(O)CN2)c1)c1cc(Br)cc(Br)c1O (stereo not shown) [Example 6] |
| 7.63 | 5.61 |  | O=C(O)CC(NC(=O)CNC(=O)c1cc(O)cc(NC2=NCC(O)CN2)c1)c1cc(Br)cc(I)c1O (stereo not shown) [Example 3] |
| 9.00 | 6.58 |  | O=C(O)C[C@H](NC(=O)CNC(=O)c1cc(O)cc(N=C2NCC(O)CN2)c1)c1cc(Br)cc(Cl)c1O (stereo partly shown) [Example 7] |
| 8.02 | 5.97 |  | O=C(O)C[C@H](NC(=O)CNC(=O)c1cc(O)cc(NC2=NCC(O)CN2)c1)c1cc(Br)cc(I)c1O (stereo partly shown) [Example 12] |
| 9.43 | 6.41 |  | O=C(O)C[C@H](NC(=O)CNC(=O)c1cc(O)cc(NC2=NCC(O)CN2)c1)c1cc(Cl)cc(Br)c1O (stereo partly drawn) [Example 9, (S) 3-bromo-5-chloro-2-hydroxy-β-[[2-[[[3-hydroxy-5-[(1,4,5,6-tetrahydro-5-hydroxypyrimidin-2-yl)amino]phenyl]carbonyl]amino]acetyl]amino]-benzenepropanoic acid, trifluoroacetate salt] |
